Data as given in patent US20250002450A1, “CATIONIC STEROID COMPOUNDS, METHOD OF OBTAINING THEREOF, FORMULATIONS COMPRISING THEREOF AND THEIR USES” (UNIVERSIDADE DO PORTO, priority 2021, published 2025).

What was measured:
E. coli SA/2 (ESBL) = test: Kirby-Bauer disk diffusion; assay type: cell-based; details: 15 μg per disk
Description: (§1) An initial screening of the antibacterial activity of the compounds was performed by the Kirby-Bauer disk diffusion method, as recommended by the Clinical and Laboratory Standards Institute (CLSI). Briefly, sterile 6 mm blank paper disks (Oxoid, Basingstoke, England) impregnated with 15 μg of each compound were placed on inoculated MH agar plates. A blank disk with dimethylsulfoxide (DMSO) was used as a negative control. MH inoculated plates were incubated for 18-20 h at 37 degrees C. At the end of incubation, the inhibition halos where measured. The MIC was used to determine the antibacterial activity of each compound, in accordance with the recommendations of the CLSI. Two-fold serial dilutions of the compounds were prepared in Mueller-Hinton Broth 2 (MHB2—Sigma-Aldrich, St. Louis, MO, USA) within the concentration range of 0.062-64 μg/mL. CTX ranging between 0.031-16 μg/mL was used as a control. Sterility and growth controls were included in each assay. Purity checks and colony counts of the inoculum suspensions were also performed in order to ensure that the final inoculum density closely approximates the intended number (5×10^5 CFU/mL). The MIC was determined as the lowest concentration of compound that inhibited growth of the bacteria. The MBC was assessed by spreading 10 μL of culture collected from wells showing no visible growth on MH agar plates. […] These assays were performed in duplicate.

[1] = test system: Escherichia coli ATCC 25922; test: Kirby-Bauer disk diffusion; assay type: cell-based; details: 15 μg per disk
Description: as §1

[2] = test system: Pseudomonas aeruginosa ATCC 27853; test: Kirby-Bauer disk diffusion; assay type: cell-based; details: 15 μg per disk
Description: as §1

[3] = test system: Staphylococcus aureus ATCC 29213; test: Kirby-Bauer disk diffusion; assay type: cell-based; details: 15 μg per disk
Description: as §1

C. jejuni P5/4 = test: Kirby-Bauer disk diffusion; assay type: cell-based, Campylobacter jejuni; details: 15 μg per disk
Description: (§2) An initial screening of the antibacterial activity of the compounds was performed by the Kirby-Bauer disk diffusion method, as recommended by the Clinical and Laboratory Standards Institute (CLSI). Briefly, sterile 6 mm blank paper disks (Oxoid, Basingstoke, England) impregnated with 15 μg of each compound were placed on inoculated MH agar plates. A blank disk with dimethylsulfoxide (DMSO) was used as a negative control. MH inoculated plates were incubated for 18-20 h at 37 degrees C. At the end of incubation, the inhibition halos where measured. The MIC was used to determine the antibacterial activity of each compound, in accordance with the recommendations of the CLSI. Two-fold serial dilutions of the compounds were prepared in Mueller-Hinton Broth 2 (MHB2—Sigma-Aldrich, St. Louis, MO, USA) within the concentration range of 0.062-64 μg/mL. CTX ranging between 0.031-16 μg/mL was used as a control. Sterility and growth controls were included in each assay. Purity checks and colony counts of the inoculum suspensions were also performed in order to ensure that the final inoculum density closely approximates the intended number (5×10^5 CFU/mL). The MIC was determined as the lowest concentration of compound that inhibited growth of the bacteria. The MBC was assessed by spreading 10 μL of culture collected from wells showing no visible growth on MH agar plates. […]

E. faecalis B3/101 (VRE) = test: Kirby-Bauer disk diffusion; assay type: cell-based, Enterococcus faecalis; details: 15 μg per disk
Description: as §2

[4] = test system: Enterococcuss faecalis ATCC 29212; test: Kirby-Bauer disk diffusion; assay type: cell-based, Enterococcus faecalis; details: 15 μg per disk
Description: as §2

E. coli SA/2 = test: Checkerboard synergy with CTX; assay type: cell-based
Description: (§3) The combined effect of compound 1 and CTX for E. coli SA/2, VAN for E. faecalis B3/101, COL for E. coli 2252, erythromycin for E. coli ATCC 25922, and OXA for S. aureus 66/1 was evaluated by the checkerboard method. […] The interaction between compound 1 and erythromycin was assessed for E. coli ATCC 25922. Gram-negative bacteria are intrinsically resistant to erythromycin, a macrolide that inhibits protein synthesis, and cannot penetrate the outer membrane of Gram-negative bacteria, which is impermeable to hydrophobic antibiotics. Ascertain ceragenins have been previously described to be able to enhance the efficacy of such antibiotics, this possibility was investigated for compound 1 and a FICI of 0.6 was obtained.

E. faecalis B3/101 = test: Checkerboard synergy with VAN; assay type: cell-based, Enterococcus faecalis
Description: as §3

E. coli 2252 = test: Checkerboard synergy with COL; assay type: cell-based, Escherichia coli
Description: as §3

E. coli ATCC 25922 [5] = test: Time-kill kinetics; assay type: cell-based, Escherichia coli
Description: The present disclosure relates to antibacterial mechanism of action of the compound 1 herein disclosed. In an embodiment, the evaluation of time-kill kinetics was performed as follows. Time-kill kinetics of compound 1 were evaluated for E. coli ATCC 25922, allowing the confirmation of its bactericidal effect. This is usually determined when ≥99.9% killing of the initial inoculum occurs and is determined by a 3-log10-unit decrease in CFU/mL.
The effect of compound 1 concentrations ranging between 64 and 8 μg/mL was evaluated. The bacterial inoculum was prepared by suspending colonies from overnight cultures (grown in MHA) in CAMHB, and an aliquot of this suspension was added to each tube of CAMHB alone (control) or CAMHB plus an appropriate amount of compound 1, to give an inoculum of approximately 5×10^5 CFU/mL, in a final volume of 10 mL. Tubes were incubated at 37 degrees C. in a water bath with shaking. At predetermined time points (30 min, 1, 1.5, 2, 3, 4, 6, 8, 12, and 24 h), 100 μL aliquots were aseptically removed from each tube, after vortexing, serially diluted in buffered peptone water (Biokar Diagnostics, Allone, Beauvais, France), if necessary, and spread on MHA. Colony counts were determined following overnight incubation at 37 degrees C. and log10 CFU/mL was plotted against time. Three independent experiments were performed.

E. coli ATCC 25922 [6] = test: Bacterial biofilm formation inhibition (crystal violet); assay type: cell-based, Escherichia coli
Description: In an embodiment, the antibiofilm activity of compound 1 was performed as follows. Given its bactericidal effect, the impact of compound 1 on the biofilm formation of reference strains was studied.
The effect of compound 1 on bacterial biofilm formation was evaluated through quantification of total biomass, using the crystal violet method, as previously described ([FIG. 6]). […] A control with an appropriate concentration of DMSO, as well as a negative control (TSB alone) was included. Sterile 96-well flat-bottomed untreated polystyrene microtiter plates were used. After a 24 h incubation at 37 degrees C., the biofilms were heat-fixed for 1 h at 60 degrees C. and stained with 0.5% (v/v) crystal violet (Quimica Clinica Aplicada, Amposta, Spain) for 5 min. The stain was resolubilized with 33% (v/v) acetic acid (Acetic acid 100%, AppliChem, Darmstadt, Germany) and the biofilm biomass was quantified by measuring the absorbance of each sample at 570 nm in a microplate reader (Thermo Scientific Multiskan® EX, Thermo Fisher Scientific, Waltham, MA, USA). The background absorbance (TSB or TSB+1% glucose without inoculum) was subtracted from the absorbance of each sample and the data are presented as a percentage of control. Three independent assays were performed for reference strains, with triplicates for each experimental condition.

[7] = test system: marine biofilm-forming bacterial strains; details: cited from earlier work

## C[C@H](CCC(=O)NCCN)[C@H]1CC[C@H]2[C@@H]3CC[C@@H]4C[C@H](O)CC[C@]4(C)[C@H]3C[C@H](O)[C@]12C [Compound 1, (R)—N-(2-aminoethyl)-4-((3R,5R,8R,9S,10S,12S,13R,14S,17R)-3,12-dihydroxy-10,13-dimethylhexadecahydro-1H-cyclopenta[a]phenanthren-17-yl) pentanamida]
E. coli SA/2 (ESBL)
  Disk diffusion: 8 mm
[1]
  Disk diffusion: 8 mm
[2]
  Disk diffusion: 8 mm
[3]
  Disk diffusion: 13 mm
C. jejuni P5/4
  Disk diffusion: 8 mm
E. faecalis B3/101 (VRE)
  Disk diffusion: 11 mm
[4]
  Disk diffusion: 13 mm
E. coli SA/2
  combined effect with CTX (in words): No synergistic interactions
E. faecalis B3/101
  combined effect with VAN (in words): No synergistic interactions
E. coli 2252; checkerboard, E. coli 2252
  combined effect with COL (in words): No synergistic interactions
E. coli 2252; with COL, E. coli 2252 (mcr-1)
  fractional inhibitory concentration index (FICI): 0.6
E. coli ATCC 25922 [5]; 64 μg/mL (2×MIC)
  exposure time to bactericidal activity (≥99.9% killing): approximately 1 h
E. coli ATCC 25922 [5]; 64 μg/mL, after 30 min of exposure
  decrease in CFU/mL: 2 log10-unit
E. coli ATCC 25922 [5]; 64-8 μg/mL
  type of killing (in words): concentration-dependent killing
E. coli ATCC 25922 [6]; 2×MIC and MIC, 24 h
  biofilm formation (in words): significantly inhibited
E. coli ATCC 25922 [6]; 80% reduction of biofilm formation, E. coli ATCC 25922
  minimal biofilm inhibitory concentration (MBIC): < 8 µg/mL
[7]
  activity against growth of marine biofilm-forming bacterial strains (in words): active
